# According to patent publication US11198713B2, “Agents modulating beta-catenin functions and methods thereof” (FOG PHARMACEUTICALS, INC., priority 2017, dated 2021):
# Target: T1, full-length beta-catenin (Axin site) (Homo sapiens, UniProt P35222)
# T1 construct: 15 nM full-length beta-catenin, 20 nM FITC labeled peptide in buffer
# T1 sequence (P35222 1-781): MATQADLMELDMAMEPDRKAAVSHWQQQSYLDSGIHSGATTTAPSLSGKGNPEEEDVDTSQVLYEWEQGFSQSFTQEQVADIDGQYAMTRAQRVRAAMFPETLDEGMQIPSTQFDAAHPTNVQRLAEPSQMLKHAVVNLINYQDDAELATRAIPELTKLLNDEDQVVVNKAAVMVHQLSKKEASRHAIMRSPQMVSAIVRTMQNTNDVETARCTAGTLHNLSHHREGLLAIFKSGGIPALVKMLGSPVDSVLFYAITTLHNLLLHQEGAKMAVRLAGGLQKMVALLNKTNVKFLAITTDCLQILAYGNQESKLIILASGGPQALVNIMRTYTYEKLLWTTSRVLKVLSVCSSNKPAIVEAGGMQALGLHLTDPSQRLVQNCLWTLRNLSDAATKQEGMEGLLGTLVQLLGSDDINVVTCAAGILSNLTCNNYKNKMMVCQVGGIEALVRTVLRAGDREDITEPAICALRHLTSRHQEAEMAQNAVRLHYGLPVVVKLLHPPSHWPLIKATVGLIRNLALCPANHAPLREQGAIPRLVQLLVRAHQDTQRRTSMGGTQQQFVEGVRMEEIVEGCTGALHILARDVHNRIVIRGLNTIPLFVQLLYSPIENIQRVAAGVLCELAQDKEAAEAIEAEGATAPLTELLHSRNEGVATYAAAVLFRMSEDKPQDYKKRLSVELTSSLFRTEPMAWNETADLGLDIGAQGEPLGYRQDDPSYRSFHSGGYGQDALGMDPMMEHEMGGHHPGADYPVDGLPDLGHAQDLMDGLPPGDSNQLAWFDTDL
# Experiment: Competition fluorescence polarization assay (Axin site probe)
# Type: binding
# Settings: competition fluorescence polarization, Table 2; read-out: in vitro FP EC50
# Procedure, shortened: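 Competition FP: 15 nM full-length β-catenin pre-incubated 5 min with 20 nM FITC-labelled stapled Axin-site peptide, then titrated peptide added (3-fold series from 5 μM) for 15 min in the dark. Buffer 50 mM Tris pH 8.0, 250 mM NaCl, 2% glycerol, 0.5 mM EDTA; duplicate reads.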
row,EC50,Structure (SMILES)
1,> 5 µM,"CC[C@H](C)[C@@H]1NC(=O)[C@H](Cc2ccccn2)NC(=O)[C@H](C)NC(=O)[C@H](CC(=O)O)NC(=O)[C@H](CC(C)C)NC(=O)[C@H]([C@@H](C)CC)NC(=O)[C@](C)(NC(=O)[C@H](C)NC(C)=O)CCCCCCC=CCOC(=O)N2CC[C@@](C(=O)N[C@@H](CC3CCCCC3)C(=O)N[C@H](C(=O)N[C@@H](Cc3c[nH]c4ccccc34)C(N)=O)C(C)C)(C2)NC1=O (single isomer, unassigned) [FP0566c Isomer 1, Ac-A-R8-I-L-D-A-2pyr-I-MB-Cha-V-W-NH2]"
2,> 5 µM,"CCC[C@H](NC(=O)[C@]12CCN(C1)C(=O)OCC=CCCCCCC[C@@](C)(NC(=O)[C@H](C)NC(C)=O)C(=O)N[C@@H]([C@@H](C)CC)C(=O)N[C@@H](CC(C)C)C(=O)N[C@@H](CC(=O)O)C(=O)N[C@@H](C)C(=O)N[C@@H](Cc1ccccn1)C(=O)N[C@@H]([C@@H](C)CC)C(=O)N2)C(=O)N[C@H](C(=O)N[C@@H](Cc1c[nH]c2ccccc12)C(N)=O)C(C)C (single isomer, unassigned) [FP0567c Isomer 1, Ac-A-R8-I-L-D-A-2pyr-I-MB-Nva-V-W-NH2]"
3,> 5 µM,"CCC[C@H](NC(=O)[C@]12CCN(C1)C(=O)OCC=CCCCCCC[C@@](C)(NC(=O)[C@H](C)NC(C)=O)C(=O)N[C@@H]([C@@H](C)CC)C(=O)N[C@@H](CC(C)C)C(=O)N[C@@H](CC(=O)O)C(=O)N[C@@H](C)C(=O)N[C@@H](Cc1ccccn1)C(=O)N[C@@H]([C@@H](C)CC)C(=O)N2)C(=O)N[C@H](C(=O)N[C@@H](Cc1c[nH]c2ccccc12)C(N)=O)C(C)C (single isomer, unassigned) [FP0567c Isomer 2, Ac-A-R8-I-L-D-A-2pyr-I-MB-Nva-V-W-NH2]"
4,> 5 µM,"CC[C@H](C)[C@@H]1NC(=O)[C@H](Cc2ccccn2)NC(=O)[C@H](C)NC(=O)[C@H](CC(=O)O)NC(=O)[C@H](CC(C)C)NC(=O)[C@H]([C@@H](C)CC)NC(=O)[C@](C)(NC(=O)[C@H](C)NC(C)=O)CCCCCCC=CCOC(=O)N2CC[C@@](C(=O)N[C@H](C(=O)N[C@H](C(=O)N[C@@H](Cc3c[nH]c4ccccc34)C(N)=O)C(C)C)C(C)(C)C)(C2)NC1=O (single isomer, unassigned) [FP0568c Isomer 1, Ac-A-R8-I-L-D-A-2pyr-I-MB-tLeu-V-W-NH2]"
5,> 5 µM,"CC[C@H](C)[C@@H]1NC(=O)[C@H](Cc2ccccn2)NC(=O)[C@H](C)NC(=O)[C@H](CC(=O)O)NC(=O)[C@H](CC(C)C)NC(=O)[C@H]([C@@H](C)CC)NC(=O)[C@](C)(NC(=O)[C@H](C)NC(C)=O)CCCCCCC=CCOC(=O)N2CC[C@@](C(=O)N[C@H](C(=O)N[C@H](C(=O)N[C@@H](Cc3c[nH]c4ccccc34)C(N)=O)C(C)C)C(C)(C)C)(C2)NC1=O (single isomer, unassigned) [FP0568c Isomer 2, Ac-A-R8-I-L-D-A-2pyr-I-MB-tLeu-V-W-NH2]"
6,> 5 µM,"CC[C@H](C)[C@@H]1NC(=O)[C@H](Cc2ccccn2)NC(=O)[C@H](C)NC(=O)[C@H](CC(=O)O)NC(=O)[C@H](CC(C)C)NC(=O)[C@H]([C@@H](C)CC)NC(=O)[C@](C)(NC(=O)[C@H](C)NC(C)=O)CCCCCCC=CCOC(=O)N2CC[C@@](C(=O)N[C@@H](Cc3ccco3)C(=O)N[C@H](C(=O)N[C@@H](Cc3c[nH]c4ccccc34)C(N)=O)C(C)C)(C2)NC1=O (single isomer, unassigned) [FP0569c Isomer 1, Ac-A-R8-I-L-D-A-2pyr-I-MB-fur-V-W-NH2]"
7,> 5 µM,"CC[C@H](C)[C@@H]1NC(=O)[C@H](Cc2ccccn2)NC(=O)[C@H](C)NC(=O)[C@H](CC(=O)O)NC(=O)[C@H](CC(C)C)NC(=O)[C@H]([C@@H](C)CC)NC(=O)[C@](C)(NC(=O)[C@H](C)NC(C)=O)CCCCCCC=CCOC(=O)N2CC[C@@](C(=O)N[C@@H](Cc3ccco3)C(=O)N[C@H](C(=O)N[C@@H](Cc3c[nH]c4ccccc34)C(N)=O)C(C)C)(C2)NC1=O (single isomer, unassigned) [FP0569c Isomer 2, Ac-A-R8-I-L-D-A-2pyr-I-MB-fur-V-W-NH2]"
8,> 5 µM,"CC[C@H](C)[C@@H]1NC(=O)[C@H](Cc2ccccn2)NC(=O)[C@H](C)NC(=O)[C@H](CC(=O)O)NC(=O)[C@H](CC(C)C)NC(=O)[C@H]([C@@H](C)CC)NC(=O)[C@](C)(NC(=O)[C@H](C)NC(C)=O)CCCCCCC=CCOC(=O)N2CC[C@@](C(=O)NC(C)(C)C(=O)N[C@H](C(=O)N[C@@H](Cc3c[nH]c4ccccc34)C(N)=O)C(C)C)(C2)NC1=O (single isomer, unassigned) [FP0570c Isomer 1, Ac-A-R8-I-L-D-A-2pyr-I-MB-Aib-V-W-NH2]"
9,> 5 µM,"CC[C@H](C)[C@@H]1NC(=O)[C@H](Cc2ccccn2)NC(=O)[C@H](C)NC(=O)[C@H](CC(=O)O)NC(=O)[C@H](CC(C)C)NC(=O)[C@H]([C@@H](C)CC)NC(=O)[C@](C)(NC(=O)[C@H](C)NC(C)=O)CCCCCCC=CCOC(=O)N2CC[C@@](C(=O)NC(C)(C)C(=O)N[C@H](C(=O)N[C@@H](Cc3c[nH]c4ccccc34)C(N)=O)C(C)C)(C2)NC1=O (single isomer, unassigned) [FP0570c Isomer 2, Ac-A-R8-I-L-D-A-2pyr-I-MB-Aib-V-W-NH2]"
10,> 5 µM,"CC[C@H](C)[C@@H]1NC(=O)[C@H](Cc2ccccn2)NC(=O)[C@H](C)NC(=O)[C@H](CC(=O)O)NC(=O)[C@H](CC(C)C)NC(=O)[C@H]([C@@H](C)CC)NC(=O)[C@](C)(NC(=O)[C@H](C)NC(C)=O)CCCCCCC=CCOC(=O)N2CC[C@@](C(=O)N[C@@H](Cc3cccs3)C(=O)N[C@H](C(=O)N[C@@H](Cc3c[nH]c4ccccc34)C(N)=O)C(C)C)(C2)NC1=O (single isomer, unassigned) [FP0571c Isomer 1, Ac-A-R8-I-L-D-A-2pyr-I-MB-thi-V-W-NH2]"
11,> 5 µM,"CC[C@H](C)[C@@H]1NC(=O)[C@H](Cc2ccccn2)NC(=O)[C@H](C)NC(=O)[C@H](CC(=O)O)NC(=O)[C@H](CC(C)C)NC(=O)[C@H]([C@@H](C)CC)NC(=O)[C@](C)(NC(=O)[C@H](C)NC(C)=O)CCCCCCC=CCOC(=O)N2CC[C@@](C(=O)N[C@@H](Cc3cccs3)C(=O)N[C@H](C(=O)N[C@@H](Cc3c[nH]c4ccccc34)C(N)=O)C(C)C)(C2)NC1=O (single isomer, unassigned) [FP0571c Isomer 2, Ac-A-R8-I-L-D-A-2pyr-I-MB-thi-V-W-NH2]"
12,> 5 µM,"CC[C@H](C)[C@@H]1NC(=O)[C@H](Cc2ccccn2)NC(=O)[C@H](C)NC(=O)[C@H](CC(=O)O)NC(=O)[C@H](CC(C)C)NC(=O)[C@H]([C@@H](C)CC)NC(=O)[C@](C)(NC(=O)[C@H](C)NC(C)=O)CCCCCCC=CCOC(=O)N2CC[C@@](C(=O)N[C@@H](Cc3ccccn3)C(=O)N[C@H](C(=O)N[C@@H](Cc3c[nH]c4ccccc34)C(N)=O)C(C)C)(C2)NC1=O (single isomer, unassigned) [FP0572c Isomer 1, Ac-A-R8-I-L-D-A-2pyr-I-MB-2pyr-V-W-NH2]"
13,> 5 µM,"CC[C@H](C)[C@@H]1NC(=O)[C@H](Cc2ccccn2)NC(=O)[C@H](C)NC(=O)[C@H](CC(=O)O)NC(=O)[C@H](CC(C)C)NC(=O)[C@H]([C@@H](C)CC)NC(=O)[C@](C)(NC(=O)[C@H](C)NC(C)=O)CCCCCCC=CCOC(=O)N2CC[C@@](C(=O)N[C@@H](Cc3cccnc3)C(=O)N[C@H](C(=O)N[C@@H](Cc3c[nH]c4ccccc34)C(N)=O)C(C)C)(C2)NC1=O (single isomer, unassigned) [FP0573c Isomer 1, Ac-A-R8-I-L-D-A-2pyr-I-MB-3pyr-V-W-NH2]"
14,> 5 µM,"CC[C@H](C)[C@@H]1NC(=O)[C@H](Cc2ccccn2)NC(=O)[C@H](C)NC(=O)[C@H](CC(=O)O)NC(=O)[C@H](CC(C)C)NC(=O)[C@H]([C@@H](C)CC)NC(=O)[C@](C)(NC(=O)[C@H](C)NC(C)=O)CCCCCCC=CCOC(=O)N2CC[C@@](C(=O)N[C@@H](Cc3cccnc3)C(=O)N[C@H](C(=O)N[C@@H](Cc3c[nH]c4ccccc34)C(N)=O)C(C)C)(C2)NC1=O (single isomer, unassigned) [FP0573c Isomer 2, Ac-A-R8-I-L-D-A-2pyr-I-MB-3pyr-V-W-NH2]"
15,> 5 µM,"CC[C@H](C)[C@@H]1NC(=O)[C@H](Cc2ccccn2)NC(=O)[C@H](C)NC(=O)[C@H](CC(=O)O)NC(=O)[C@H](CC(C)C)NC(=O)[C@H]([C@@H](C)CC)NC(=O)[C@](C)(NC(=O)[C@H](C)NC(C)=O)CCCCCCC=CCOC(=O)N2CC[C@@](C(=O)N[C@@H](CC3CC3)C(=O)N[C@H](C(=O)N[C@@H](Cc3c[nH]c4ccccc34)C(N)=O)C(C)C)(C2)NC1=O (single isomer, unassigned) [FP0574c Isomer 1, Ac-A-R8-I-L-D-A-2pyr-I-MB-cpa-V-W-NH2]"
16,> 5 µM,"CC[C@H](C)[C@@H]1NC(=O)[C@H](Cc2ccccn2)NC(=O)[C@H](C)NC(=O)[C@H](CC(=O)O)NC(=O)[C@H](CC(C)C)NC(=O)[C@H]([C@@H](C)CC)NC(=O)[C@](C)(NC(=O)[C@H](C)NC(C)=O)CCCCCCC=CCOC(=O)N2CC[C@@](C(=O)N[C@@H](CC3CC3)C(=O)N[C@H](C(=O)N[C@@H](Cc3c[nH]c4ccccc34)C(N)=O)C(C)C)(C2)NC1=O (single isomer, unassigned) [FP0574c Isomer 2, Ac-A-R8-I-L-D-A-2pyr-I-MB-cpa-V-W-NH2]"
